From US12516038B2, “Inhibitors of antigen presentation by HLA-DR” (Janssen Pharmaceutica NV, priority 2020, dated 2026)

Columns and labels:
[1] = molecular target: HLA-DRB1*0401 (Homo sapiens (Human), UniProt P01903+P01911, A100K/A169T/DEL228-266/F76Y/I96L/K127E/L162R/M171V/N62H/P40V/Q125Y/R42H/S133A/S149N/S66Y/V115G/V209L/W38E); assay: HLA-DR4 HTRF assay; assay type: binding; conditions: inhibition of loading of Alexa Fluor 647-labeled Cit-CII peptide onto HLA-DR4 (CLIP cleaved)
Method in brief: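 HLA-DRB1*04:01 construct (α/β fused to human Fc, CLIP pre-cleaved by HRV3C overnight at 4° C) at 3 nM was preincubated 45 min with compound and 1 nM anti-Fc-Tb donor, then 40 nM Alexa647-Cit-CII1236-1249 peptide added. After 90 min at 37° C, the 665/620 nm HTRF ratio gave % inhibition; IC50 by nonlinear regression.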

[2] = tested on: HLA-DR4 restricted mouse T cell hybridoma line (DR4.CII.36.8) with HLA-DRB1*04:01-expressing Boleth cells; assay: HLA-DR4-restricted peptide-specific T cell-based assay (hybridoma assay); conditions: Mus musculus, T-cell, 6 h, inhibition of IL-2 production, CII259-273 peptide presented by Boleth cells
Method in brief: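 Boleth cells (HLA-DRB1*04:01 B cell line) pre-incubated with compound 1 h at 37° C. in DMEM/1% FCS, then DR4.CII.36.8 mouse T cell hybridoma (CII259-273-specific) added for 6 h with CII259-273 peptide. Supernatant mouse IL-2 by AlphaLISA; IC50 by 4-PL fit of 8-point duplicate titrations.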

[3] = tested on: human peripheral blood CD4+ helper T cells; assay: Pan-CD4+ T cell activation (off-target assay); assay type: cell-based; conditions: Homo sapiens, T-cell, 24 h, anti-CD3/anti-CD28 stimulation, IL-2 production by ELISA
Method in brief: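 Human peripheral blood CD4+ T cells, with no APCs present, were stimulated with plate-bound anti-CD3 (1 μg/mL coating) plus soluble anti-CD28 (1 μg/mL) in the presence of compound or vehicle for 24 h. IL-2 in the supernatant was quantified by ELISA.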

Row | SMILES | IC50 [1] [µM] | IC50 [2] [µM] | IC50 [3] [µM]
1 | NC(=O)c1ccc([C@H](Oc2ccc3c(c2)O[C@H](c2ccccc2)CC3=O)c2ccncc2)cc1 (single isomer, unassigned) [Example 42b, 4-((*S)—(((*S)-4-oxo-2-phenylchroman-7-yl)oxy)(pyridin-4-yl)methyl)benzamide] | 7.5 | 12 | 9.9
2 | Cc1c(O[C@@H](c2ccc(C(N)=O)cc2)c2ccccc2C#N)ccc2c1OCCC2=O (single isomer, unassigned) [Example 61b, (*S)-4-((2-cyanophenyl)((8-methyl-4-oxochroman-7-yl)oxy)methyl)benzamide] | 0.96 | 5.2 | > 15
3 | NC(=O)c1ccc([C@H](Oc2ccc3c(c2-c2ccc(-c4ccccc4)cc2)OCCC3=O)c2ccncc2)cc1 (single isomer, unassigned) [Example 79b, (*S)-4-(((8-([1,1′-biphenyl]-4-yl)-4-oxochroman-7-yl)oxy)(pyridin-4-yl)methyl)benzamide] | 49 | 0.97 | > 15
